Reference: patent publication US6498138B1, “Method of promoting production of living tissue equivalents” (University of Southern California, priority 1998, dated 2002)
Entries after “also recorded” stand apart in the source; their conditions may differ. Square brackets hold non-standard residues; d marks the D form. Ends that are not written are not given here. Phe(4-NH2) = Nc1ccc(C[C@H](N)C(=O)O)cc1; Nle = CCCC[C@H](N)C(=O)O; Ac5c = NC1(C(=O)O)CCCC1

Columns and labels:
Normal human fibroblasts = test: Contraction of collagen lattices by human fibroblasts; format: cell-based; settings: for Diameter of Lattice, Day 1 / Diameter of Lattice, Day 2 / Diameter of Lattice, Day 3 / Diameter of Lattice, Day 4: 10 μg/ml peptide, 1×10^5 fibroblasts/well; for Diameter of Lattice, Day 1: Day 1 of culture; for Diameter of Lattice, Day 2: Day 2 of culture; for Diameter of Lattice, Day 3: Day 3 of culture; for Diameter of Lattice, Day 4: Day 4 of culture
Protocol: Normal human fibroblasts were purchased from Clonetics (San Diego, Calif.) and were thawed and cultured in Fibroblast Growth Medium (Clonetics) according to the manufacturer's instructions. Once the cells reached confluence in the flask, they were harvested by trypsinization and utilized for the studies described below.
Rat tails were harvested from 200 gram female rats and frozen until use. The frozen rat tails were thawed in 70% (vol/vol) ethanol for 20 minutes. The tendon bundles were excised in 70% ethanol in a vertical laminar flow hood. The individual tendons were pulled out of the tendon sheath, minced, and placed in dilute acetic acid (1:1000) using 250 ml per tail. The mixture was incubated at 4° C. for 48 hours, at which point the minced tendons had swelled to the volume of the dilute acetic acid. The viscous mixture was centrifuged at 23,000 rpm in a Beckman L ultracentrifuge for 1 hour. The supernatant was harvested and further refined. This crude collagen solution was mixed with 0.1M NaOH in a 6:1 ratio to neutralize the acetic acid and precipitate the collagen. The mixture was then centrifuged at 1500 rpm for 5 minutes. The supernatant was discarded and an equal volume of fresh acetic acid (1:1000) was introduced to resolubilize the collagen over 48 hours. This solution was stored at 4° C. as refined collagen. The protein concentration was determined by BCA assay.
The collagen lattices for the assessment of contraction by fibroblasts and angiotensin II were formed in 60 mm Falcon bacteriological dishes. Each dish contained 1 ml 4×DMEM High glucose medium, 1 ml fetal calf serum, 0.25 ml NaOH, 1.5 ml of 500 μg/ml refined collagen and 1 ml of fibroblasts in Fibroblast Growth Medium (7.5×10^4 cells/ml to 7.5×10^5 cells/ml). In these cultures, various concentrations of AII (1 to 10 μg/ml) were added to assess the effect of AII on the formation of an artificial dermis. The cultures were placed in an incubator at 37° C. in an atmosphere of 5% CO2 in air. At various times after culture initiation, the diameter of the formed lattice was measured. As there are slight differences in diameter at various points (ie: the lattices were not always perfectly round), the average of the largest and the smallest diameters were taken.
Similar experiments were conducted using AII analogues and fragments, except that ten μg/ml of each of the peptides shown in Table 3 were added to 1×10^5 of fibroblasts/well. At various times after culture initiation, the diameter of the formed lattice was measured.

Human keratinocytes = test: Keratinocyte proliferation on Integra artificial dermis; format: cell-based; settings: 10 μg/ml peptide, 1×10^5 cells/ml
Excerpt: Integra, a commercially available artificial dermis of chondrotin sulfate and collagen, was obtained (Integra Life Sciences) and used in culture as a matrix for keratinocyte growth. The Integras was washed free of preservative by a sterile saline for injection and cut to size to fit snugly into the bottom of 24 well plates. After trimming, the pieces of Integra were placed silicone-side down into the wells.
Human keratinocytes were purchased from Clonetics and thawed and cultured as described in Example 3, except that they were grown in Keratinocyte Growth Medium, as per the manufacturer's instructions. Once the cells reached confluence in the flask, they were detached from the tissue culture flasks by trypsinization. The cells were resuspended at 1×10^5 cells/ml in Keratinocyte Growth Medium or Keratinocyte Basal Medium with or without 10 μg/ml of various AII-related peptides (AII, AII(1-7), Pro3 AII(1-7), Ala4-AIII, and Pro3-AII; see Table 5 below). One ml of these cell preparations was added to wells of the 24 well plates containing Integra membrane. The cultures were placed in an incubator at 37° C. in an atmosphere of 5% CO2 in air. At various times after initiation of the cultures, the number of keratinocytes on the surface of the Integra membrane in 5 100×fields was assessed under phase contrast microscopy.

[1] = tested on: living skin equivalent (LSE) epidermis; test: Epidermal thickness of living skin equivalent (LSE) presoaked in AII and grafted on nude mice; format: in vivo, Swiss nude mice
Excerpt: Twenty three male Swiss nude mice (22-24 grams) were purchased from Taconic Laboratories and quarantined at least two days prior to surgery, and divided into 4 groups of mice. The mice were anesthetized with an intramuscular injection of Ketamine (ketaset; Phoenix Pharmaceuticals, Inc.) and Rompun (xylazine; Phoenix Pharmaceuticals, Inc.) and a 1 cm×1 cm full thickness skin excision was made on their dorsal surface. Each group received an Apligraph LSE (Organogenesis; Canton, Mass.) that had been soaked for 10 minutes in concentrations of AII ranging from 0 to 1.0 mg/ml. The LSE was placed in the defect and trimmed with microscissors so that no gap was observed between the edges of the mouse skin and the LSE. After the graft was placed, the dorsal surface of the mouse was covered by petroleum embedded gauze (Dermacea) followed by two adhesive bandages (Baxter). After recovery from anesthesia, the mice were returned to their individual cages and observed daily until euthenasia. The mice received intramuscular analgesia for the first three days after surgery. No mouse lost their bandage prior to bandage removal on day 7 and day 23. […]
[…] The thickest part of each graft was measured and the thickness of the graft at one-half of a 10×field to each side of the thickest portion was also measured.

AT2 receptor = settings: cited from earlier work
[2] = tested on: keratinocytes from explants of human skin; test: Outgrowth of keratinocytes from explants of human skin on Dermagraft; format: cell-based; settings: AII 1 or 10 μg/ml, 7 days
Excerpt: Human skin explants were obtained from surgery of split thickness skin grafts and cut by scalpel in to 2 mm×2 mm squares. Ten explants per condition were placed dermal side down on frozen and thawed Dermagraft (Advanced Tissue Sciences, San Diego, Calif.) and cultured at the air-liquid interface using Keratinocyte-SFM medium (Gibco BRL, Grand Island, N.Y.) supplemented with epidermal growth factor and bovine pituitary extract according to the manufacturer's instructions. The culture medium contained penicillin (50 U/ml) and streptomycin (50 μg/ml) and extra calcium chloride to a final concentration of 1 mM. Angiotensin II was added to the culture medium at a final concentration of 1 or 10 μg/ml. The cultures were maintained at 37° C. with 5% CO2 and medium with and without AII and the medium was changed twice weekly. After 7 days, the cultures were fixed in formalin for one hour, stained with hematoxylin and washed in tap water. The dermal replacements appeared dark purple except for the area where the keratinocytes exclude the stain. Cultures were photographed using a dissection microscope at a fixed magnification and the area of outgrowth was quantified by gravimetric planimetry.

[3] = Unspecified test of effectiveness of AII fragments; settings: test not specified

Row | Substance | Diameter of Lattice, Day 1 (Normal human fibroblasts) [cm] | Diameter of Lattice, Day 2 (Normal human fibroblasts) [cm] | Diameter of Lattice, Day 3 (Normal human fibroblasts) [cm] | Diameter of Lattice, Day 4 (Normal human fibroblasts) [cm] | proliferation of keratinocytes (number on the surface of the Integra membrane) (Human keratinocytes) | also measured
1 | --RVYnLHPF (RVY[Nle]HPF) [NorLeu4 AIII] | 3.4 | 2.0 | 1.6 | 1.5 | – | –
2 | Asp-Arg-Val-Tyr-Ile-His-Pro (DRVYIHP) [AII(1-7)] | 3.4 | 2.4 | 2.0 | 1.7 | increased the proliferation of keratinocytes | –
3 | Asp-Arg-Val-Tyr-Ile-His-Pro-Phe (DRVYIHPF) [AII, known pressor agent, commercially available, reference compound] | 3.3 | 2.4 | 1.6 | 1.4 | increased the proliferation of keratinocytes | vessels attached to underside of graft ([1]; day 7, one of the AII-treated grafts): numerous vessels attached to its underside; epidermal thickness ([1]; day 23 post-grafting, LSE soaked 10 minutes in AII 0 to 1.0 mg/ml): increased in a concentration-dependent manner; contraction of collagen lattices (Normal human fibroblasts; AII 1 to 10 μg/ml, fibroblasts 7.5×10^4 to 7.5×10^5 cells/ml): accelerated the contraction of collagen lattices; affinity for AT2 than AT1 (AT2 receptor; AT2 versus AT1): 100 times; area of the artificial dermis covered with keratinocytes (outgrowth) [2]: increased the area of the artificial dermis covered with keratinocytes
4 | Asp-Arg-Val-Tyr-Ile-Xaa-Pro-Phe (DRVYI[Phe(4-NH2)]PF) [(p-NH2-Phe)6-AII] | – | – | – | – | – | binding characteristics (AT2 receptor; experimental models tested, compared with AT2 antagonists): comparable to AT2 antagonists
5 | DR(Acpc)YIHPF (DR[Ac5c]YIHPF) [Acpc3 AII] | 3.5 | 2.0 | 1.6 | 1.4 | – | –
6 | DRPYIHP [Pro3 AII(1-7)] | – | – | – | – | increased the proliferation of keratinocytes | –
7 | DRPYIHPF [Pro3-AII] | – | – | – | – | increased the proliferation of keratinocytes | –
8 | DRVYIHPI [Ile8 AII] | 3.4 | 2.4 | 1.7 | 1.4 | – | –
9 | GRVYIHPF [Gly1 AII] | 3.4 | 2.2 | 1.6 | 1.5 | – | –
10 | His-Pro-Phe (HPF) [AII(6-8)] | – | – | – | – | – | effectiveness [3]: not to be effective
11 | RVYAHPF [Ala4-AIII] | 3.4 | 2.7 | 1.9 | 1.6 | increased the proliferation of keratinocytes | –
12 | Tyr-Ile-His-Pro-Phe (YIHPF) [AII(4-8)] | – | – | – | – | – | effectiveness [3]: not to be effective; also recorded: ineffective in repeated tests
